# Experimental data from patent US7910612B2, “4-oxy-N-[1,3,4]-thiadiazol-2-yl-benzene sulfonamides, pharmaceutical compositions and methods for their therapeutic use” (Sanofi-Aventis, priority 2005, dated 2011).
# Molecular target: T1, human PPARalpha (Homo sapiens, UniProt Q07869)
# T1 construct: amino acids S167-Y468; expressed in transfected cells; host or cells: HEK (human embryo kidney) cells, stably transfected, pcDNA3 vector
# T1 sequence (Q07869 167-468): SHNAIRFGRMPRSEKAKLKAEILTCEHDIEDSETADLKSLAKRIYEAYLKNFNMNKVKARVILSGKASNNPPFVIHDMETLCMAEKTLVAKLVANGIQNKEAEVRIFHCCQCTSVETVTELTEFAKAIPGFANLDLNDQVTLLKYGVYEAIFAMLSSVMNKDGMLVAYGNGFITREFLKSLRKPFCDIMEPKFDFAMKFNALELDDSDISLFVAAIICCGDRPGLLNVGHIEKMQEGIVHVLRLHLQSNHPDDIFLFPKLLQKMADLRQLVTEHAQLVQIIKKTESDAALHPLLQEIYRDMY
# Test: cellular PPARalpha assay (stably transfected HEK luciferase reporter cell line)
# Assay type: cell-based
# Description: The activity of the compounds was tested by a determination of EC50 values of PPAR agonists in the cellular PPARalpha assay. The potency of substances which bind to human PPARalpha and activate it in an agonistic manner is analyzed using a stably transfected HEK cell line (HEK=human embryo kidney) which is referred to here as PPARalpha reporter cell line. It contains two genetic elements, a luciferase reporter element (pdeltaM-GAL4-Luc-Zeo) and a PPARalpha fusion protein (GR-GAL4-humanPPARalpha-LBD) which mediates expression of the luciferase reporter element depending on a PPARalpha ligand. The stably and constitutively expressed fusion protein GR-GAL4-humanPPARalpha-LBD binds in the cell nucleus of the PPARalpha reporter cell line via the GAL4 protein portion to the GAL4 DNA binding motifs 5′-upstream of the luciferase reporter element which is stably integrated in the genome of the cell line. There is only weak expression of the luciferase reporter gene in the absence of a PPARalpha ligand if fatty acid-depleted fetal calf serum (cs-FCS) is used in the assay. PPARalpha ligands bind and activate the PPARalpha fusion protein and thereby stimulate the expression of the luciferase reporter gene. The luciferase which is formed can be detected by means of chemiluminescence via an appropriate substrate.
# The PPARalpha reporter cell line was prepared in two stages. Firstly, the luciferase reporter element was constructed and stably transfected into HEK cells. For this purpose, five binding sites of the yeast transcription factor GAL4 (Accession # AF264724) were cloned in 5′-upstream of a 68 bp-long minimal MMTV promoter (Accession #V01175). The minimal MMTV promoter section contains a […] and a TATA element in order to enable efficient transcription by RNA polymerase II. The cloning and sequencing of the GAL4-MMTV construct took place in analogy to the description of Sambrook J. et. al. (Molecular cloning, Cold Spring Harbor Laboratory Press, 1989). Then the complete Photinus pyralis gene (Accession #M15077) was cloned in 3′-downstream of the GAL4-MMTV element. After sequencing, the luciferase reporter element consisting of five GAL4 binding sites, MMTV promoter and luciferase gene was recloned into a plasmid which confers zeocin resistance in order to obtain the plasmid pdeltaM-GAL4-Luc-Zeo. This vector was transfected into HEK cells in accordance with the statements in Ausubel, F. M. et al. (Current protocols in molecular biology, Vol. 1-3, John Wiley & Sons, Inc., 1995).
# In a second step, the PPARalpha fusion protein (GR-GAL4-humanPPARalpha-LBD was introduced into the stable cell clone described. For this purpose, initially the cDNA coding for the N-terminal 76 amino acids of the glucocorticoid receptor (Accession #P04150) was linked to the cDNA section coding for amino acids 1-147 of the yeast transcription factor GAL4 (Accession #P04386). The cDNA of the ligand-binding domain of the human PPARalpha receptor (amino acids S167-Y468; Accession #S74349) was cloned in at the 3′-end of this GR-GAL4 construct. The fusion construct prepared in this way (GR-GAL4-humanPPARalpha-LBD) was recloned into the plasmid pcDNA3 (Invitrogen) in order to enable constitutive expression therein by the cytomegalovirus promoter. This plasmid was linearized with a restriction endonuclease and stably transfected into the previously described cell clone containing the luciferase reporter element. The finished PPARalpha reporter cell line which contains a luciferase reporter element and constitutively expresses the PPARalpha fusion protein (GR-GAL4-human PPARalpha-LBD) was isolated by selection with zeocin (0.5 mg/ml) and G418 (0.5 mg/ml).
# Assay procedure.—The activity of PPARalpha agonists is determined in a 3-day assay which is described below: […]
row,SMILES,EC50 [nM]
1,"COc1ccc2c(COc3ccc(S(=O)(=O)Nc4nnc(C(C)C)s4)cc3)coc2c1 [Example 3, N-(5-Isopropyl-[1,3,4]thiadiazol-2-yl)-4-(6-methoxy-benzofuran-3-ylmethoxy)-benzenesulfonamide]",4570
2,"Cc1nc(-c2ccc(C(F)(F)F)cc2)sc1COc1ccc(S(=O)(=O)Nc2nnc(C(C)C)s2)cc1 [Example 1, N-(5-Isopropyl-[1,3,4]thiadiazol-2-yl)-4-[4-methyl-2-(4-trifluoromethyl-phenyl)-thiazol-5-ylmethoxy]-benzenesulfonamide]",2900
3,"COc1ccc(-c2nc(COc3ccc(S(=O)(=O)Nc4nnc(C(C)C)s4)cc3)no2)cc1 [Example 9, N-(5-Isopropyl-[1,3,4]thiadiazol-2-yl)-4-[5-(4-methoxy-phenyl)-[1,2,4]oxadiazol-3-ylmethoxy]-benzenesulfonamide]",1420

# The next molecules have a lower EC50 than those just listed; values first:
row,EC50 [nM],SMILES
1,1200,"COc1ccc(-c2nc(COc3ccc(S(=O)(=O)Nc4nnc(C(C)C)s4)cc3)co2)cc1 [Example 13, N-(5-Isopropyl-[1,3,4]thiadiazol-2-yl)-4-[2-(4-methoxy-phenyl)-oxazol-4-ylmethoxy]-benzenesulfonamide]"
2,540,"CC(C)c1nnc(NS(=O)(=O)c2ccc(OCc3ccc(Oc4ccc(C(F)(F)F)cc4)cc3)cc2)s1 [Example 4, N-(5-Isopropyl-[1,3,4]thiadiazol-2-yl)-4-[4-(4-trifluoromethyl-phenoxy)-benzyloxy]-benzenesulfonamide]"
3,190,"CCc1oc(-c2cccc(C(F)(F)F)c2)nc1COc1ccc(S(=O)(=O)Nc2nnc(C(C)C)s2)cc1 [Example 14, 4-[5-Ethyl-2-(3-trifluoromethyl-phenyl)-oxazol-4-ylmethoxy]-N-(5-isopropyl-[1,3,4]thiadiazol-2-yl)-benzenesulfonamide]"
